Several values for one entry are separate records, joined by “and”; a condition that tells them apart may be missing. Equal values may be shown once.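 These data come from cells grown in 96-well plates and exposed to compound for 48 hours at five concentrations. At the GI50, growth is halved. Definition used: TGI = concentration required for complete inhibition of growth.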

Test systems include MDA-MB-231 breast; CAKI-1 renal; CCRF-CEM leukemia; A549 NSCLC; HOP-92 NSCLC; SR leukemia; MDA-MB-435; MOLT-4 leukemia; OVCAR-8 ovarian; HCT-116 colon.
Experiment in all cases: NCI anticancer screen, dose series, 48 h

With `O=c1c(OC/C(=N/O)c2ccccc2)c(-c2ccccc2)oc2ccccc12`, the GI50 was 9.39 µM in the assay on MDA-MB-231 breast; 9.52 µM in the assay with CAKI-1 renal; 0.461 µM in the assay on CCRF-CEM leukemia; 30.3 µM in the assay on A549 NSCLC; 14.3 µM with HOP-92 NSCLC; 13.9 µM with SR leukemia. Besides, the results for the GI50 in the assay on MDA-MB-435, with MOLT-4 leukemia and in the assay on OVCAR-8 ovarian were 10.9 µM, 12.6 µM and 21.7 µM, respectively. In addition, the TGI with MDA-MB-231 breast is 23.6 µM; in the assay on CAKI-1 renal it was 40.8 µM; with CCRF-CEM leukemia, 6.47 µM; in the assay with A549 NSCLC, more than 50 µM; in the assay on HOP-92 NSCLC, more than 50 µM; in the assay with SR leukemia, more than 50 µM. Moreover, the TGI was 28 µM with MDA-MB-435, more than 50 µM with MOLT-4 leukemia and more than 50 µM in the assay on OVCAR-8 ovarian.

As to `Cn1cnc([N+](=O)[O-])c1Sc1ncnc2nc[nH]c12`, the GI50 was 8.83 µM and 11.7 µM in the assay on MDA-MB-231 breast; 2.6 µM and 5.07 µM in the assay on CAKI-1 renal; 3.64 µM and 5.1 µM in the assay with CCRF-CEM leukemia; 40 µM and > 67.3 µM in the assay on A549 NSCLC; 37.9 µM and 4.04 µM in the assay on SR leukemia; 2.68 µM and 4.37 µM in the assay on MDA-MB-435. For the same molecule, the GI50 is 8.77 µM and 6.68 µM in the assay with MOLT-4 leukemia; 3.62 µM and 23.4 µM in the assay with HCT-116 colon; 3.68 µM and > 26.6 µM in the assay on OVCAR-8 ovarian. Besides, the TGI in the assay on MDA-MB-231 breast, in the assay on CAKI-1 renal, with CCRF-CEM leukemia, with A549 NSCLC, in the assay on HOP-92 NSCLC and in the assay with SR leukemia was more than 100 µM in each case. Also, the TGI with MDA-MB-435, with MOLT-4 leukemia, in the assay with HCT-116 colon and with OVCAR-8 ovarian was more than 100 µM throughout.

As for `c1ccc2c(NCCCCCCCCNc3c4ccccc4nc4ccccc34)c3ccccc3nc2c1`, the TGI in the assay on MDA-MB-231 breast was 1.74 µM; with CAKI-1 renal it was 2.18 µM; with CCRF-CEM leukemia it was 2.15 µM; in the assay on HOP-92 NSCLC, 2.87 µM; in the assay on SR leukemia, 0.755 µM; in the assay with MDA-MB-435, 2.35 µM. Also, the TGI stood at 1.26 µM in the assay on HCT-116 colon and 2.45 µM in the assay with OVCAR-8 ovarian.

With `OC1CCC(Oc2cccc3cnc(Nc4ccc5nc[nH]c5c4)nc23)CC1` (stereo not drawn), the GI50 in the assay with MDA-MB-231 breast was 0.389 µM; in the assay on CAKI-1 renal it was 0.497 µM; in the assay with CCRF-CEM leukemia it was 0.282 µM; in the assay on A549 NSCLC, 0.404 µM; in the assay with HOP-92 NSCLC, 0.467 µM; with SR leukemia it was 0.143 µM. For the same molecule, the GI50 in the assay with MDA-MB-435 was 0.612 µM; in the assay with MOLT-4 leukemia, 0.157 µM; in the assay on HCT-116 colon, 0.191 µM; in the assay with OVCAR-8 ovarian, 0.521 µM. Further, the TGI with MDA-MB-231 breast worked out at 19.8 µM; with CAKI-1 renal, 21.5 µM; with CCRF-CEM leukemia it was 17.3 µM; in the assay on A549 NSCLC it was 19.7 µM; with HOP-92 NSCLC it was 29.4 µM; in the assay on SR leukemia, 0.671 µM. Moreover, the TGI in the assay on MDA-MB-435 was determined as 12.1 µM; in the assay on MOLT-4 leukemia it was 0.636 µM; with HCT-116 colon it was 12 µM; in the assay on OVCAR-8 ovarian, 43 µM.

As to `O=Nc1c2cccnc2n2nnc3ccc(Cl)cc3c12`, the GI50 with MDA-MB-231 breast was 1.41 µM; with CAKI-1 renal it was 0.436 µM; with CCRF-CEM leukemia it was 0.0452 µM; with A549 NSCLC, 3.98 µM; in the assay on HOP-92 NSCLC, 0.0999 µM; with SR leukemia it was 0.0458 µM. In addition, the GI50 is 2.65 µM with MDA-MB-435, 0.0476 µM in the assay on MOLT-4 leukemia, 0.316 µM in the assay with HCT-116 colon and 3.74 µM in the assay with OVCAR-8 ovarian. The TGI with MDA-MB-231 breast is 7.76 µM; in the assay with CAKI-1 renal, 2.35 µM; in the assay with CCRF-CEM leukemia, 2.76 µM; with A549 NSCLC, 23.8 µM; in the assay with HOP-92 NSCLC it was 1.75 µM; in the assay with SR leukemia it was 2.99 µM. The TGI came to 7.99 µM in the assay with MDA-MB-435, 1.49 µM in the assay with MOLT-4 leukemia, 6.11 µM with HCT-116 colon and 11.2 µM in the assay on OVCAR-8 ovarian.

Take `CCc1ccc(C2=C(O)C(=O)C(c3ccc(CC)cc3)=C(O)C2=O)cc1`: the GI50 was 2.53 µM with MDA-MB-231 breast; 1.92 µM in the assay with CAKI-1 renal; 1.37 µM in the assay on CCRF-CEM leukemia; 2.74 µM with A549 NSCLC; 1.24 µM with HOP-92 NSCLC; 1.91 µM in the assay with SR leukemia. The GI50 was 1.89 µM in the assay on MDA-MB-435, 1.81 µM in the assay on MOLT-4 leukemia, 2.24 µM in the assay on HCT-116 colon and 2.95 µM with OVCAR-8 ovarian. Besides, the TGI with MDA-MB-231 breast was 11 µM; in the assay with CAKI-1 renal, 5.27 µM; with CCRF-CEM leukemia, 5.72 µM; in the assay with A549 NSCLC, 10.4 µM; with HOP-92 NSCLC it was 4.33 µM; in the assay on SR leukemia, 5.07 µM. The TGI came out at 6.72 µM in the assay with MDA-MB-435, 4.15 µM in the assay with MOLT-4 leukemia, 6 µM with HCT-116 colon and 10.2 µM with OVCAR-8 ovarian.

With `O=C(O)c1nnsc1COCc1ccccc1`, the TGI with MDA-MB-231 breast, in the assay with CAKI-1 renal, in the assay with CCRF-CEM leukemia, with A549 NSCLC, with HOP-92 NSCLC and in the assay on SR leukemia was more than 100 µM in each case. Besides, the TGI in the assay with MDA-MB-435, in the assay on MOLT-4 leukemia, in the assay on HCT-116 colon and in the assay on OVCAR-8 ovarian was more than 100 µM each time.

With `O=C1Cc2c(-c3ccccc3)cc(-c3cccc(Cl)c3)nc2-c2ccccc2N1`, the TGI was 5.49 µM in the assay on MDA-MB-231 breast; 5.06 µM in the assay with CAKI-1 renal; 50.9 µM with CCRF-CEM leukemia; 9.25 µM in the assay with A549 NSCLC; 5.42 µM in the assay on HOP-92 NSCLC; more than 100 µM with SR leukemia. Also, the TGI is more than 59.9 µM with MDA-MB-435, more than 90.4 µM with MOLT-4 leukemia, 4.13 µM with HCT-116 colon and 5.4 µM in the assay with OVCAR-8 ovarian.

On to `COC(=O)c1ccc2c(c1)c1c(C)c3cnccc3c(C)c1n2C`, for which the GI50 was 0.125 µM in the assay on MDA-MB-231 breast; 0.0354 µM with CAKI-1 renal; 0.103 µM with CCRF-CEM leukemia; 0.0615 µM in the assay on A549 NSCLC; 0.0653 µM in the assay with HOP-92 NSCLC; 0.0372 µM in the assay with SR leukemia. For the same molecule, the GI50 in the assay on MDA-MB-435 is 0.0585 µM; in the assay with MOLT-4 leukemia it was 0.0468 µM; in the assay with OVCAR-8 ovarian, 0.0595 µM. Besides, the TGI with MDA-MB-231 breast turned out to be 0.884 µM; in the assay with CAKI-1 renal, 0.61 µM; in the assay with CCRF-CEM leukemia it was 13.8 µM; in the assay with A549 NSCLC, 0.658 µM; in the assay on HOP-92 NSCLC, 0.584 µM; in the assay with SR leukemia, 2.04 µM. In addition, the TGI in the assay on MDA-MB-435 stood at 1.09 µM; in the assay on MOLT-4 leukemia, 3.13 µM; in the assay with OVCAR-8 ovarian it was 3.79 µM.

The values are drawn from PubChem BioAssay (NCI).
